Test results: PubChem BioAssay (NCI)
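Tested at 5 concentrations; 48 h exposure; 96-well plates; endpoints linearly interpolated, else capped at highest concentration. The concentration for 50% growth inhibition is given as GI50. TGI: total growth inhibition.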

Key:
Assay in all cases: DTP human tumour cell line panel, 48 h
[1] = tested on: M14 melanoma
[2] = tested on: NCI-H23 lung
[3] = tested on: ACHN renal
[4] = tested on: SF-539 CNS
[5] = tested on: NCI/ADR-RES ovarian
[6] = tested on: MCF7 breast
[7] = tested on: KM12 colon
[8] = tested on: TK-10 renal
[9] = tested on: OVCAR-3 ovarian
[10] = tested on: SNB-75 CNS

SMILES | GI50 [1] [µM] | TGI [1] [µM] | GI50 [2] [µM] | TGI [2] [µM] | GI50 [3] [µM] | TGI [3] [µM] | GI50 [4] [µM] | TGI [4] [µM] | GI50 [5] [µM] | TGI [5] [µM] | GI50 [6] [µM] | TGI [6] [µM] | GI50 [7] [µM] | TGI [7] [µM] | GI50 [8] [µM] | TGI [8] [µM] | GI50 [9] [µM] | TGI [9] [µM] | GI50 [10] [µM] | TGI [10] [µM]
COc1ccc(-c2ccc(/C=N/n3c(C)nn(CN4CCN(C)CC4)c3=S)o2)c([N+](=O)[O-])c1 | 42.4 | > 100 | 26.1 | 92.5 | 69.4 | > 100 | 54.4 | > 100 | 21.6 | 50.5 | 30.4 | > 100 | 17.7 | 42.9 | 24.3 | 74.7 | 16.2 | 38.1 |  | 
CCC1CCc2nc3sc(C(=O)Nc4ccccc4C)c(N)c3cc2C1 (stereo not drawn) |  |  |  |  | 0.835 | > 100 | 0.398 | > 100 | 0.785 | > 100 | 0.287 | > 100 | 0.502 | > 100 | 0.833 | > 100 | 0.351 | > 100 | 0.312 | > 100
O=C(NO)C(=O)Nc1ccc(Cl)cc1[N+](=O)[O-] |  | > 100 |  | > 100 |  | > 100 |  | > 100 |  |  |  |  |  | > 100 |  | > 100 |  | > 100 |  | > 100
Cc1cc(C)c(S(=O)(=O)ONC(=O)OC(C)(C)C)c(C)c1 |  | > 100 |  | > 100 |  | > 100 |  | > 100 |  |  |  |  |  | > 100 |  | > 100 |  | > 100 |  | > 100
Cc1ccc(S(=O)(=O)Cc2nc(-c3ccc(C(=O)NCc4cccnc4)cc3)oc2C)cc1 | 0.0699 | > 100 |  |  | 7.06 | > 100 | < 0.01 | > 35.5 | 0.623 | > 100 | 3.93 | > 100 | 0.266 | > 100 | > 67.8 | > 100 | 8.1 | > 100 | 4.73 | 47.9
CCOC(=O)NC(=O)c1cn(CCN2CCN(C(=O)CCCCCCCCCCNc3ncnc4nc[nH]c34)CC2)c(=O)[nH]c1=O |  | > 100 |  | > 100 |  | > 100 |  | > 100 |  |  |  |  |  | > 100 |  | > 100 |  | > 100 |  | > 100
CCC(C(=O)[O-])C(=O)[O-].CCC(C(=O)[O-])C(=O)[O-].N.N.NCCCCCCN.[Pt+4].[Pt+4] | 6.68 | 13.1 | 9.84 | 24.5 | 6.77 | 13.4 | 10.4 | 21.7 |  |  |  |  | 8.83 | 16.8 | 8.23 | 15.1 | 9 | 16.3 | 9.85 | 20.4
C#Cc1cccc(Nc2nc3ccc([N+](=O)[O-])cc3nc2Nc2cccc(C#C)c2)c1 | 0.199 | 0.495 | 0.265 | 0.911 | 0.293 | 1.16 | 0.247 | 0.738 | 0.284 | 1.1 | 0.266 | 1.07 | 0.299 | 1.03 |  |  | 0.193 | 0.67 | 0.175 | 0.653
CC(=O)OCC1O[C@@H]([S-])C(OC(C)=O)[C@H](OC(C)=O)[C@@H]1OC(C)=O.[Au+].c1ccc(CN2[CH-]N(Cc3ccccc3)C(c3ccccc3)=C2c2ccccc2)cc1 | 1.69 | 3.58 |  |  | 1.82 | 3.51 | 1.85 | 3.56 | 5.21 | > 100 |  |  | 2.09 | 4.27 | 1.86 | 3.42 | 1.61 | 2.99 | 1.37 | 2.68
CC1=C(c2cc(C(=O)Nc3cccc(C(F)(F)F)c3)ncn2)Sc2ccccc2N1 |  | > 100 |  | > 100 |  | > 100 |  | > 100 |  |  |  |  |  | > 100 |  | > 100 |  | > 100 |  | > 100
COc1ccc(-c2csc(-c3cc(Cl)cc(Cl)c3Cl)n2)cc1 | > 100 | > 100 |  |  | > 100 | > 100 | 41.8 | > 100 | 52.2 | > 100 | 5.91 | > 100 | 48.1 | > 100 | > 100 | > 100 | 86.8 | > 100 | 40 | > 100
Cc1nc(Nc2ccc([N+](=O)[O-])cc2)sc1C(/C=C/c1ccc(N(C)C)cc1)=N/NC(=O)c1ccccc1 |  | > 100 |  | > 100 |  | > 100 |  | > 100 |  |  |  |  |  | > 100 |  | > 100 |  | > 100 |  | > 100
COc1ccc(-c2c(-c3cc(OC)c4c(c3)OCO4)noc2N)cc1 |  |  | 0.0329 | 20.9 | 0.108 | 39.8 | 0.0339 | 11.7 |  |  | 0.028 | 28.5 | 0.0161 | 0.827 | 10.4 | 49.7 | 0.0203 | 0.0483 | 0.0339 | 58.5
OC(c1ccccn1)C1CNc2ccccc21 (stereo not drawn) |  | > 100 |  | > 100 |  | > 100 |  | > 100 |  |  |  |  |  | > 100 |  | > 100 |  | > 100 |  | > 100
O=C(OCc1ccc2c(Cl)cc(Cl)c(O)c2n1)c1cc2ccccc2[nH]1 | 0.279 | 0.898 | 1.49 | 3.2 | 0.219 | 0.519 | 0.587 | 1.48 | 0.953 | 5.22 |  |  | 1.69 | 3.38 | 0.553 | 1.47 | 0.198 | 0.398 | 0.583 | 1.97
COc1ccc(C(=O)c2cc3c(N)c(C(=O)Nc4cccc(Cl)c4C)sc3nc2C)cc1 | 0.0715 | > 25 | 0.173 | > 25 | 0.202 | > 25 | 0.0679 | 0.169 | 0.086 | > 25 | 0.0932 | > 25 | 0.106 | > 25 | > 25 | > 25 | 0.0872 | > 25 |  | 
NC(=O)/C=C/NC(=O)/C=N\O |  | > 100 |  |  |  | > 100 |  | > 100 |  | > 100 |  | > 100 |  | > 100 |  |  |  | > 100 |  | > 100
